In US9120781B2, “Selective glycosidase inhibitors and uses thereof” (Simon Fraser University, priority 2010, dated 2015):

biological target: human O-GlcNAcase (Homo sapiens (Human), UniProt O60502); test: Assay for determination of KI values for inhibition of O-GlcNAcase activity (fluorescence-based hOGA); assay type: biochemical; details: purified human O-GlcNAcase, 4-Methylumbelliferyl N-acetyl-β-D-glucosaminide substrate, pH 7.0, Cheng-Prusoff
Experimental: Assay for Determination of KI Values for Inhibition of O-GlcNAcase Activity
Experimental Procedure for Kinetic Analyses:
Enzymatic reactions are carried out in a reaction containing 50 mM NaH2PO4, 100 mM NaCl and 0.1% BSA (pH 7.0) using 2 mM 4-Methylumbelliferyl N-acetyl-β-D-glucosaminide dihydrate (Sigma M2133) dissolved in ddH2O, as a substrate. The amount of purified human O-GlcNAcase enzyme used in the reaction is 0.7 nM. Test compound of varying concentrations is added to the enzyme prior to initiation of the reaction. The reaction is performed at room temperature in a 96-well plate and is initiated with the addition of substrate. The production of fluorescent product is measured every 60 sec for 45 min with a Tecan Infinite M200 plate-reader with excitation at 355 nm and emission detected at […], with 4-Methylumbelliferone (Sigma M1381) used to produce a standard curve. The slope of product production is determined for each concentration of compound tested and plotted, using standard curve fitting algorithms for sigmoidal dose response curves. The values for a four parameter logistic curve fit of the data are determined.

Sequence of human O-GlcNAcase (O60502 whole entry): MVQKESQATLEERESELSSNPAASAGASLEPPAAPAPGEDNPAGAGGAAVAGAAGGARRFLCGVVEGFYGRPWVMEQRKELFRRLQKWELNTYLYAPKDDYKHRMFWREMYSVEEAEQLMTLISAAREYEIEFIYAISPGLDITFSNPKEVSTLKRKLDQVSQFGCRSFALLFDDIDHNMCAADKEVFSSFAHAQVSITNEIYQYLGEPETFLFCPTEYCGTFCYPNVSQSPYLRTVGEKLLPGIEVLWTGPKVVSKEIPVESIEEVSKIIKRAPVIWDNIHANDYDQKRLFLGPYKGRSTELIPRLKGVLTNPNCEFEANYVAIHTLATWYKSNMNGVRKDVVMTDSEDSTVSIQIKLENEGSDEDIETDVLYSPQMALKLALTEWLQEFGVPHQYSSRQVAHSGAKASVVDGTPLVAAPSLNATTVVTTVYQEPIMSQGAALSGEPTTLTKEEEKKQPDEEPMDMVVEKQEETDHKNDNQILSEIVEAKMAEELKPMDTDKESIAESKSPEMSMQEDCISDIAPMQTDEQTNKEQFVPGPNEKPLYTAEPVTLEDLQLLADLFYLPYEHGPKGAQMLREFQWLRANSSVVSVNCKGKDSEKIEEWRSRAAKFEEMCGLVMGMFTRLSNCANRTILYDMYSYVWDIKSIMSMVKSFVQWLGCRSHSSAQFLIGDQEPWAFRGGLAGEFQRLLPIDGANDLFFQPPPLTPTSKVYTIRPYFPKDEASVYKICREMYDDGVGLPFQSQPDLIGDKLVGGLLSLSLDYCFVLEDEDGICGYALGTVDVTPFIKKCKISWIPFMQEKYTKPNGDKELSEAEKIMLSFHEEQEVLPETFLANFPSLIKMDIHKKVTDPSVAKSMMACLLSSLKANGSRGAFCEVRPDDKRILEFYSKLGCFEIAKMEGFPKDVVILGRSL

| Structure (SMILES) | Ki [nM] |
| --- | --- |
| CCNC1=N[C@@H]2[C@@H](O)[C@H](O)[C@@H](CO)C[C@@H]2O1 [Example 9, (3aR,4R,5R,6R,7aS)-2-(ethylamino)-6-(hydroxymethyl)-3a,4,5,6,7,7a-hexahydrobenzo[d]oxazole-4,5-diol] | 0.6 |
| OC[C@H]1C[C@@H]2OC(N3CCC3)=N[C@@H]2[C@@H](O)[C@@H]1O [Example 18, (3aR,4R,5R,6R,7aS)-2-(azetidin-1-yl)-6-(hydroxymethyl)-3a,4,5,6,7,7a-hexahydrobenzo[d]oxazole-4,5-diol] | 0.13 |
| CN(C)C1=N[C@@H]2[C@@H](O)[C@H](O)[C@@H](CO)C[C@@H]2S1 [Example 22, (3aR,4R,5R,6R,7aS)-2-(dimethylamino)-6-(hydroxymethyl)-3a,4,5,6,7,7a-hexahydrobenzo[d]thiazole-4,5-diol] | 0.5 |

Further lines, results first:

| Ki [nM] | Structure (SMILES) |
| --- | --- |
| 484 | CN(C)C1=N[C@H]2[C@H](O)[C@@H](O)[C@H](CO)C[C@H]2S1 [Example 23, (3aS,4S,5S,6S,7aR)-2-(dimethylamino)-6-(hydroxymethyl)-3a,4,5,6,7,7a-hexahydrobenzo[d]thiazole-4,5-diol] |
| 0.2 | CNC1=N[C@@H]2[C@@H](O)[C@H](O)[C@@H](CO)C[C@@H]2S1 [Example 26, (3aR,4R,5R,6R,7aS)-2-(methylamino)-6-(hydroxymethyl)-3a,4,5,6,7,7a-hexahydrobenzo[d]thiazole-4,5-diol] |
| 2.5 | OC[C@H]1C[C@@H]2OC(NCCF)=N[C@@H]2[C@@H](O)[C@@H]1O [Example 32, (3aR,4R,5R,6R,7aS)-2-((2-fluoroethyl)amino)-6-(hydroxymethyl)-3a,4,5,6,7,7a-hexahydrobenzo[d]oxazole-4,5-diol 2,2,2-trifluoroacetate] |
